Data reported in patent US20220218667A1, “DUAL INHIBITORS OF SOLUBLE EPOXIDE HYDROLASE AND METHODS OF USE THEREOF” (OROX Biosciences, Inc., priority 2019, published 2022).
“And” between values parts separate entries of the source, which are not always exact repeats. Identical values can stand only once. Like-named read-outs stand apart in the source and are kept apart here.

How the values were obtained:
[1] = tested on: C57BL/6 mice, bleomycin-induced fibrotic lung injury; assay: Example 2: therapeutic treatment in bleomycin-induced idiopathic pulmonary fibrosis mouse model; format: in vivo; conditions: OX1 60 mg/kg, Pirfenidone 100 mg/kg
Text: The purpose of this study is to induce fibrotic lung injury in mice via a single administration of a glycopeptide antibiotic, bleomycin, in order to evaluate the efficacy of dual sEH and COX-2 inhibitor OX-1 in treating and reducing the symptoms associated with idiopathic pulmonary fibrosis. Pirfenidone, standard of care for the treatment of idiopathic pulmonary fibrosis, was used as a reference compound.
Male C57BL/6 mice from Charles River Laboratories aging of 7-8 weeks and weighing around 18-22 g at the time of their enrollment were used in the study.
Doses of OX1 at 60 mg/kg, Pirfenidone at 100 mg/kg, and the disease inducer Bleomycin at 1.5 mg/kg were used. A dosing rate of 10 mL/kg (approximately 0.2 mL/mouse according to their body weight) of OX1 was administered orally once daily to the mice. The mice received OX1 at 60 mg/kg once daily. A dosing rate of 10 mL/kg (approximately 0.2 mL/mouse according to their body weight) of Pirfenidone solution was administered once daily to the mice of the groups receiving Pirfenidone orally at the dose of 100 mg/kg once daily. A single intratracheal instillation of approximately 50 μL (1.5 mg/kg with a dosing rate of 2.5 mL/kg in sterile 0.9% saline) of bleomycin solution was administered to all mice except the sham group on day 0. Animals in the Sham group received one intratracheal instillation of approximately 50 μL of 0.9% saline solution on Day 0 and returned to their respective cages.
Treatment with the vehicle or test articles were initiated and administered starting on day 7 to day 21 as scheduled and described in Table 1 above. All test articles, reference compound and vehicle were administered to animals orally once daily. Food and water were given ad libitum. Daily observations of the behavioral and general health status of the animals were done. Daily body weight was also measured.
Prior to physiological assessment, all mice were introduced to the plethysmograph chamber environment. After the acclimatization period, the functional respiratory parameters were assessed by the whole-body plethysmograph on Day 0 (before bleomycin instillation), 7, 14 and 21 post-bleomycin instillation. Each measurement was performed with a mouse placed alone in an unrestrained whole-body plethysmography chamber (Buxco Electronics Inc.) to measure respiratory functions. The functional respiratory parameters analyzed included; the respiratory rate, the PenH ([…]) and the inspiratory/expiratory time measurements.
On the surgery day (Day 21), the mice were anesthetized, instrumented and arterial blood oxygen saturation (SpO2) was recorded. Blood oxygen saturation was read off of the pulse oximeter (STARR Life Sciences MouseOx Plus system, Oakmont, Pa.) with the probe attached to the right thigh of the animal. The saturation values were measured in percentage (%). At the moment of the sacrifice, the mouse thoracic cavity was open to expose the lungs and all mice were euthanatized by exsanguination. The trachea was then connected to the cannula of a perfusion system. The left lung was clamped while 1.5 mL of cold PBS solution (3×500 μL) was injected by the trachea to perform a bronchoalveolar lavage fluid (BALF) on the right lobe of the lungs and was collected on ice for further analysis. The total cells count with cells differential, the cytokine levels including TNF-α, TGF-β, IL-4, IL-5 and IL-17a, the total protein content as well as the soluble collagen were assessed in the BALF samples. Once collected, 300 μL of the BALF was transferred in an EDTA tube, kept at 2-4° C. and shipped to Biovet Inc. for the total cells count with cells differential analysis. The remaining BALF sample was centrifuged at 1200 rpm for 10 minutes at 4° C. to remove cells. The supernatant was aliquots and frozen at−80° C. until analysis was performed. […]

[2] = tested on: Human primary lung fibroblasts from IPF donors; assay: Fibroblast-to-Myofibroblast Transition (FMT) assay; format: cell-based; conditions: for IC50: Homo sapiens, Primary lung fibroblast, 1.25 ng/ml TGF-b1
Description: OX1 was evaluated in a primary cell-based Fibroblast-to-Myofibroblast Transition (FMT) assay; an in vitro assay relevant to idiopathic pulmonary fibrosis (TPF). Human primary lung fibroblasts from three (3) IPF donors (IPF06, IPF07, and IPF08) were triggered using 1.25 ng/ml TGF-b1 to induce FMT, one hour after application of compounds. OX1 and Nintedanib (approved drug for TPF) were applied in […] in semi-log dilutions with the top concentration at […] to construct eight (8)-point concentration response curve (CRC) in biological duplicates (ie. on two (2) different cell plates at on (1) occasion). SB525334 was used at […] in 0.1% DMSO as a positive validation control. The readouts at 72 hours were high content analysis (HCA) for aSMA expression and DAPI staining for nuclear count as measurement of potential cytotoxic effects.

Question: Which “Eosinophils (cells)” value ([1]; BALF day 21, mean) does the source give for NS(=O)(=O)c1ccc(-n2nc(CCCNC(=O)Nc3ccc(C(F)(F)F)cc3)cc2-c2ccccc2)cc1 [OX1, 4-(5-phenyl-3-{3-[3-(4-trifluoromethyl-phenyl)-ureido]-propyl}-pyrazol-1-yl)-benzenesulfonamide] here?
Answer: The value was 580 cells.

Question: And the “Macrophages (cells)” value ([1]; BALF day 21, mean)?
Answer: Its value is 204879 cells.

Question: And the “Soluble collagen” value ([1]; BALF day 21, mean)?
Answer: Its value is 60.4 µg and 60.38 µg.

Question: And the “Total BALF cytokines (pg) IL-4” value ([1]; BALF day 21, mean)?
Answer: Its value is 0.09 pg.

Question: And the “Total BALF cytokines (pg) IL-5” value ([1]; BALF day 21, mean)?
Answer: Its value is 2.49 pg.

Question: And the “Total BALF cytokines (pg) IL-6” value ([1]; BALF day 21, mean)?
Answer: The value was 9.50 pg.

Question: And the “Total TGFβ” value ([1]; BALF day 21, mean)?
Answer: The value was 299.3 pg and 299.31 pg.

Question: What about the “Percent Survival (%)” value ([1]; BLM mice, oral once daily day 7 to 21) of the same compound?
Answer: Its value is 77.8%.

Question: And the “Body weight changes from day 7 (%)” value ([1]; mean, BLM mice, oral once daily day 7 to 21)?
Answer: Its value is 11.63%.

Question: What about the “Loss of Nuclei” value [2] of the same compound?
Answer: The value was “Yes”.

Question: What about the IC50 ([2]; donor IPF06, readout at 72 hours, read-out: αSMA inhibition IC50 (μM), Patient Identifier IPF06) of the same compound?
Answer: Its IC50 is 1 µM.

Question: What about the IC50 ([2]; donor IPF07, readout at 72 hours, read-out: αSMA inhibition IC50 (μM), Patient Identifier IPF07) of the same compound?
Answer: The IC50 was 1.3 µM.

Question: And the IC50 ([2]; donor IPF08, readout at 72 hours, read-out: αSMA inhibition IC50 (μM), Patient Identifier IPF08)?
Answer: The IC50 was 1 µM.

Question: And the IC50 ([2]; mean of three IPF donors, 72 hours, read-out: αSMA inhibition IC50 (μM), Mean)?
Answer: The IC50 was 1.1 µM.
